Test results reported in publication PMC3793977, “High-Throughput Screening (HTS) and Hit Validation to Identify Small Molecule Inhibitors with Activity against NS3/4A proteases from Multiple Hepatitis C Virus Genotypes” (PLoS ONE, 2013).
“Also recorded” adds a separate entry of the source. Where two headings read alike, the source gives them in different places.

Assays:
[1] = molecular target: T1, full-length NS3/4A protease (genotype 1b) (Hepatitis C virus genotype 1b, UniProt Q9WMX2); test: biochemical; settings: for inhibitory activity (SAR, in words): preliminary SAR of compound 12 analogues; for IC50: purified full-length NS3/4A, genotype 1b wild-type; for inhibition at 50 µM: read-out: percent inhibition at 50 µM compound concentration
T1 construct: wild-type HCV NS3 (HCV polyprotein residues 1027–1657); His-tag (N); made in house
Protocol: All assays were done in duplicate in black 384-well plates (Matrix Technologies). […] 200 nL of 10 mM compound (50 µM final concentrations) were then added and incubated for 5 minutes. Enzyme reactions were initiated with 10 µL of substrate Ac-DE-Dap(QXL520)-EE-Abu-ψ-[COO]AS-C(5-FAMsp)-NH2 (Anaspec) (1 µM final concentration), incubated for 6 minutes, and quenched by 10 µL of 10% SDS as a stop solution. Fluorescence intensity was monitored with a POLARstar OPTIMA microplate reader (BMG LABTECH). Each plate contained a total of 32 positive and 32 negative controls.
A series of compound concentrations (0 to 200 µM final concentration at 2-fold serial dilution) in 100% DMSO were prepared in a 384-well plate. 20 µL of enzyme solution was distributed to wells, and 0.5 µL of varying concentration of compounds were added and incubated for 5 minutes. The enzyme reaction was initiated by adding 5 µL of the substrate, and its activity was continuously monitored for 6 minutes. The IC50 values were calculated by fitting with the Hill equation (1), with OriginPro 8.5 (OriginLab, Inc.) where y is percent inhibition, x is inhibitor concentration, n is the slope of the concentration–response curve (Hill slope), and Vmax is maximal inhibition from two to four independent assays. [drawing 1] (1)

full-length NS3/4A = molecular target: T2, full-length NS3/4A (Hepatitis C virus genotype 1b, UniProt Q9WMX2); test: SPR binding assay (dissociation equilibrium constant KD); settings: 0–200 µM compound, single referenced with blank (ethanolamine)
T2 construct: wild-type HCV NS3 (HCV polyprotein residues 1027–1657); His-tag (N); made in house
Protocol: The full-length NS3/4A enzyme was prepared in a storage buffer (50 mM HEPES, pH 7.6, 500 mM NaCl, 1 mM DTT, 0.2% Triton X-100, and 20% glycerol) and immobilized on a CM5 sensor chip using standard amine-coupling at 25°C with running buffer HBS-P (10 mM HEPES, 150 mM NaCl, 0.05% surfactant P-20, pH 7.4) using a Biacore T100 instrument. Flow channels 1 and 3 were activated by 1-ethyl-3-(3-dimethylaminopropyl) carbodiimide hydrocholoride (EDC)/N-hydroxy succinimide (NHS) mixture, and the activated surface was blocked by ethanolamine (pH 8.5) as controls. The NS3/4A enzyme was diluted in 10 mM sodium acetate (pH 5.0), and immobilized to flow channel 4 after sensor surface activation with EDC/NHS with a 7 min injection followed by ethanolamine blocking on unoccupied surface area. NS3/4A immobilization level was ∼8,500 response units (RU). An unrelated reference protein (92 kDa) was also immobilized to flow channel 2 as another control to be compared with NS3/4A (74.6 kDa). Fifteen initial hit compounds were prepared as 10 mM DMSO stock solutions. Compound solutions with a series of increasing concentrations (0–200 µM at 1.5-fold dilution) were applied to all four channels at a 10 µL/min flow rate at 25°C. Sensorgrams were analyzed using Biaevaluation software 2.0.3, and response unit difference (ΔRU) values at each concentration were measured during the equilibration phase. Data were either single referenced with a blank (enthanolamine) or double referenced with both blank and reference protein RU values. SigmaPlot 11.0 was used to fit the data to a single rectangular hyperbolic curve to determine KD values. The hyperbola function, y = ymax·x/(KD+x), was used to plot response units and corresponding concentration, where y is the response, ymax is the maximum response, and x is the compound concentration.

Chymotrypsin = molecular target: T3, Chymotrypsin (Homo sapiens, UniProt P17538); test: Inhibitor selectivity assay, chymotrypsin (fluorometric); type: biochemical
T3 construct: purchased Sigma
Protocol: (§1) To test for selectivity, two human serine proteases, Trypsin and Chymotrypsin (Sigma), were tested with the top two hit compounds from HTS using a fluorometric assay. The fluorogenic substrates used in this study were N-benzoyl-L-Arg-7-amido-4-methylcoumarin (Sigma) and N-succinyl-Ala-Ala-Phe-7-amido-4- methylcoumarin (Sigma) for trypsin and chymotrypsin, respectively. All assays were performed in 384-well black plates (Corning) in a total volume of 24 µL of PBS (pH 7.4) buffer containing 0.01% Triton, 0.1 mg/mL BSA, and 2 mM GSH in triplicate. A series of compound concentrations (0 to 200 µM final concentration at 2-fold serial dilution) in 100% DMSO was prepared in a 384-well plate. 20 µL of trypsin (0.01 mg/mL) and chymotrypsin (0.0001 mg/mL) solutions were distributed into wells, and 0.5 µL of varying concentration of compounds were added and incubated for 10 minutes. The enzyme reaction was initiated by adding 5 µL of the substrate (50 µM final concentration), and fluorescence intensity was continuously monitored at excitation/emission wavelengths of 350 nm/460 nm for 10 minutes.

Trypsin = molecular target: T4, Trypsin (Homo sapiens, UniProt P07477); test: Inhibitor selectivity assay, trypsin (fluorometric); type: biochemical
T4 construct: purchased Sigma
Protocol: as §1

[2] = Microsomal stability assay; type: in vitro ADME, mouse; settings: Balb/c, mouse, microsomes, pH 7.4
Protocol: A typical incubation mixture (100 µL total volume) for the metabolic stability studies contained 1 µM (final concentration) test compounds, 0.5 mg/mL microsomal protein (pooled Balb/c mouse liver microsomes prepared as described previously), 100 mM Tris-HCl buffer (pH7.4), and NADPH-generating system (5 mM isocitric acid, 0.2 unit/mL isocitric acid dehydrogenase, 5 mM magnesium chloride, 1 mM NADP^+). After pre-incubation at 37°C for 5 minutes, the reactions were started by addition of NADP^+ and further incubated for another 0, 5, 10, and 20 minutes. For control experiments, NADPH and/or liver microsomes were omitted from these incubations. The reactions were terminated by adding 100 µL ice-cold acetonitrile containing phenytoin (1 µM) as an internal standard and kept on ice for 30 minutes, followed by centrifugation at 16,100 g for 15 minutes to obtain the supernatant. Aliquots (5 µL) were then analyzed for substrate disappearance using liquid chromatography-tandem mass spectrometry (Agilent 1200 HPLC interfaced with Applied Biosystems Qtrap 3200) equipped with an electrospray ion source. Chromatographic separation was carried out with a Waters XTerra MS C18 column (2.1×50 mm, 3.5 µm; Agilent Technologies, Santa Clara, CA). The mobile phases consisted of solvent A (0.1% (v/v) aqueous formic acid) and solvent B (acetonitrile). A 250 µL/min flow rate gradient was developed for each test compound over 10 minutes (Table S2 in File S1). Mass detection of test substrates and internal standard were followed in a positive ion mode by examining multiple reaction monitoring (MRM) pairs. The spraying needle voltage was set at 5000 V. Curtain gas was set at 20; gas 1 and gas 2 were set at 45 and 50, respectively; collision assisted dissociation gas was at medium; and the source heater probe temperature was at 500°C. The test compounds were quantified by comparing the ratio of ion currents obtained for the substrates and an internal standards calibration curve. Data acquisition and processing were accomplished using Analyst software (version 1.4.1; Applied Biosystems). Apparent half-lives (t1/2) for the disappearance of parent drugs were calculated from the pseudo-first-order rate constants (ke) obtained by linear regression of plots of log [drug remaining] versus time (GraphPad Prism 5 software, La Jolla, CA) using the equation: t1/2 = 0.693/ke.

[3] = read-out: IC50 Full-length NS3/4A

T2 sequence (Q9WMX2 1658-1711): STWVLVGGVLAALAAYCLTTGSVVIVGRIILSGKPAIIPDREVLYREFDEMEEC
T2 sequence (Q9WMX2 1027-1657): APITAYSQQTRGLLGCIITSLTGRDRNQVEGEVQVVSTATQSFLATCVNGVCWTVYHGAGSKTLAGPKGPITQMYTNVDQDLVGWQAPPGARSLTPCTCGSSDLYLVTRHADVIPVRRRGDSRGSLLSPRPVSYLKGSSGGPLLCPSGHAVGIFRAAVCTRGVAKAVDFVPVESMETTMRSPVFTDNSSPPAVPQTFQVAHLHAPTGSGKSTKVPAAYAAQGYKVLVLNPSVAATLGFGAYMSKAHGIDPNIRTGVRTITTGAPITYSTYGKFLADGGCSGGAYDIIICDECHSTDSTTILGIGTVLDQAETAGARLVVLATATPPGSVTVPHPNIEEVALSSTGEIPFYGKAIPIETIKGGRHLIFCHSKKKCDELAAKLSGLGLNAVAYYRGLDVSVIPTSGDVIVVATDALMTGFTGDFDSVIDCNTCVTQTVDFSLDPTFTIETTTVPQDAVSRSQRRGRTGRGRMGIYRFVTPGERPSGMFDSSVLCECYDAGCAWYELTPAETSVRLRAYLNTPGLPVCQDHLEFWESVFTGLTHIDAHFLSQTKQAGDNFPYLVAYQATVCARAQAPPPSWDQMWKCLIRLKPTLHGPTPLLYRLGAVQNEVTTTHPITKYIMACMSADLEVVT
T1 sequence (Q9WMX2 1658-1711): as the sequence (Q9WMX2 1658-1711) above
T1 sequence (Q9WMX2 1027-1657): as the sequence (Q9WMX2 1027-1657) above
T3 sequence (P17538 19-263): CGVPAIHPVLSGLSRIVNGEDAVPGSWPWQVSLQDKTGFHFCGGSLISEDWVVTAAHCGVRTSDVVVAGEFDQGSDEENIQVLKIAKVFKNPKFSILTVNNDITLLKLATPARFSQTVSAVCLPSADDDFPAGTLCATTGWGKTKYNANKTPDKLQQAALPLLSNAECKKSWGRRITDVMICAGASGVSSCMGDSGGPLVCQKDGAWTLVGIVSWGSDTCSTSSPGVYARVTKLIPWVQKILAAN

Compound | inhibitory activity (SAR, in words) [1] | IC50 [1, 3] | inhibition at 50 µM [1] | further results
Cc1ccc(S(=O)(=O)Nc2ccccc2C(=O)Nc2nc3c(Br)cccc3s2)cc1 [Compound 27] | activity is regained | 15.6 µM | – | –
Cc1ccc(S(=O)(=O)Nc2ccccc2C(=O)Nc2nc3c(Br)cccc3s2)cc1 [Compound 15] | – | – | – | SPR binding pattern to NS3/4A (full-length NS3/4A): lack of binding; also recorded: did not bind
Cc1cccc(NC(=O)Cc2csc(NS(=O)(=O)c3ccc(Cl)cc3)n2)c1 [Compound 24] | Moderate activity | 21.8 µM | – | –
Cc1cc(Br)ccc1NC(=O)Cc1csc(NS(=O)(=O)c2ccccc2)n1 [Compound 17] | – | 23.5 µM | – | –
Cc1ccc(S(=O)(=O)Nc2ccccc2C(=O)Nc2nc3c(C)ccc(C)c3s2)cc1 [Compound 26] | – | > 100 µM | 0% | –
Cc1ccc(S(=O)(=O)Nc2nc(CC(=O)Nc3ccc(Br)cc3C)cs2)cc1 [Compound 20] | complete activity loss | > 100 µM | 29.1% | –
O=C(Cc1csc(NS(=O)(=O)c2ccccc2)n1)Nc1ccccc1 [Compound 16] | – | 24.9 µM | – | –
O=C(Cc1csc(NS(=O)(=O)c2ccccc2)n1)Nc1cccc(F)c1 [Compound 22] | – | > 100 µM | 41.7% | –
O=C1c2c(O)ccc(O)c2C(=O)c2c(NCCNCCO)ccc(NCCNCCO)c21 [Compound 4, mitoxantrone, reference compound] | – | – | – | SPR binding pattern to NS3/4A (full-length NS3/4A): non-specific binding patterns; IC50 ([1]; IC50 Full-length NS3/4A): 3.1 ± 0.1 µM; inhibition at 100 µM (Chymotrypsin; 100 µM compound, read-out: Chymotrypsin % Inh at 100 µM): 0%; IC50 (Chymotrypsin; human chymotrypsin): > 100 µM; inhibition at 100 µM (Trypsin; 100 µM compound, read-out: Trypsin % Inh at 100 µM): 22%; IC50 (Trypsin; human trypsin): > 100 µM; microsomal stability ([2]; 1 µM): 25 min; half-life at 1 µM [2]: 25.4 min
O=C(Cc1csc(NS(=O)(=O)c2ccc(Cl)cc2)n1)Nc1cccc(F)c1 [Compound 23] | Moderate activity | 24.2 µM | – | –
Cc1ccc(NC(=O)Cc2csc(NS(=O)(=O)c3ccc(Cl)cc3)n2)cc1Cl [Compound 25] | – | > 100 µM | 29.2% | –
COc1ccc(S(=O)(=O)Nc2nc(CC(=O)Nc3ccc(Br)cc3C)cs2)cc1 [Compound 19] | Moderate activity | 6.2 µM | – | –
CCc1ccc(NC(=O)Cc2csc(NS(=O)(=O)c3ccc(C)cc3)n2)cc1 [Compound 21] | complete activity loss | > 100 µM | 7.2% | –
COc1ccc(S(=O)(=O)Nc2nc(CC(=O)Nc3ccc(Br)c(C)c3)cs2)cc1 [Compound 18] | Moderate activity | 14.4 µM | – | –
